Measurements as given in PMC9328652, “A novel class of fast‐acting antimalarial agents: Substituted 15‐membered azalides” (British Journal of Pharmacology, 2020).
In brackets after ≈: the same amount, converted by molar mass. Like-named read-outs stand apart in the source and are kept apart here. Marks after values point to notes of the source that are not given here.

Assays:
[1] = system: Plasmodium falciparum V1/S (CQ,PY); test: microbe, parasite or virus in culture; type: cell-based; details: 72 h, read-out: IC50 V1/S (CQ,PY)
Protocol: (§1) The activity of the test compounds against P. falciparum in vitro was determined using the tritiated hypoxanthine incorporation assay of Desjardins et al. and additionally modified by Milhous and Chulay (Chulay, Haynes, & Diggs, [1983]; Milhous, Weatherly, Bowdre, & Desjardins, [1985]).
(§2) Compounds were dissolved in DMSO and subsequently diluted in the culture medium (RPMI 1640) supplemented with 10% v/v human plasma. Serial 1:2 drug dilutions were prepared in triplicate in microtitre plates. Culture medium supplemented with 10% v/v human plasma and type A Rhesus positive human erythrocytes infected with P. falciparum strains was added to yield a haematocrit of 3% and a parasitaemia of 0.25–0.55%. The plates were incubated at 37°C in a modular incubator flushed with a mixture of 5% oxygen, 3% carbon dioxide, and 92% nitrogen for 48 h, and then [^3H]hypoxanthine was added to give a final concentration of 12.5–16 μCi·ml^−1. After incubation for additional 24 h, particulate matter was harvested on fibreglass strips and hypoxanthine incorporation determined by scintillation spectrophotometry. […] Delayed death experiments were performed by this standard method but extending the incubation time with the drug up to 96 h.

[2] = system: Plasmodium falciparum 7G8 (CQ, PY); test: [3H]hypoxanthine incorporation antimalarial assay, strain 7G8; type: cell-based
Protocol: as §1, §2

[3] = system: Plasmodium falciparum T9/94 (CQ); test: [3H]hypoxanthine incorporation antimalarial assay, strain T9/94; type: cell-based; details: 72 h, read-out: IC50 T9/94 (CQ)
Protocol: as §1, §2

HepG2 cells = details: cited from earlier work
[4] = Pharmacokinetic studies in CD-1 mice; details: for B/P (ratio of AUC0−t in whole blood and plasma): after oral administration; for DNAUCPO (AUC0−t divided by the dose) / Cmax: blood; for DNAUCPO (AUC0−t divided by the dose): oral gavage 12.5 mg·kg^−1; for half-life / Vd / clearance / bioavailability / AUC(0-t) / Cmax: Swiss albino CD-1, mouse; for Vd / clearance: iv; for AUC(0-t): AUC0-t; for AUC(0-t) / Cmax: oral gavage 12.5 mg/kg; for Cmax: C max
Protocol: For pharmacokinetic (PK) studies in mice, animals were dosed either by intravenous (i.v.) or oral (p.o.) route. For i.v. administration, the dosing volume was 10 ml·kg^−1 for a total dose of 12.5 mg·kg^−1, and for p.o. administration, the dosing volume was 20 ml·kg^−1 for a total dose of 12.5 mg·kg^−1. Dosing solutions were prepared in 100% saline ([…]) both for i.v. and p.o. administration for all compounds with the exception of compound 4 for which dosing solutions were prepared in PBS with 5% Cremophor‐EL (Fluka). Following i.v. dosing, blood samples were collected at 5 and 15 min, 1, 3, 6, 8, 24, and 48 h post‐dose. Following oral dosing, blood samples were collected at 15 and 30 min, 1, 2, 4, 6, 8, 24, and 48 h post‐dose.
For studies performed in Swiss albino CD‐1 mice (Harlan Laboratories, Spain), in order to obtain simultaneous blood and plasma profiles and blood‐to‐plasma (B/P) ratio, PK was performed using terminal sampling of N = 3 animals per time point and data evaluated using composite analysis. For studies performed in P. falciparum infected and non‐infected NODscidβ2m^−/− mice (Charles River Laboratories, France), only whole blood was obtained by serial sampling of N = 3 animals using tail puncture.
For analysis of whole blood samples, 25 μl of fresh blood were mixed with 25 μl of saponin solution (0.1% in water) and immediately frozen on dry ice. Plasma was obtained by centrifugation of fresh blood at 2,500 g for 10 min. Both blood and plasma samples were stored frozen at −80°C until analysis.
Diluted blood and plasma samples were processed under standard liquid–liquid extraction procedures using acetonitrile containing internal standard (clarithromycin, 100 ng·ml^−1) and analysed by LC–MS/MS in positive ion mode with electrospray. Samples were assayed for parent compound using a Sciex API 4000 and Sciex API‐2000 Triple Quadrupole Mass Spectrometer (Sciex, Division of MDS Inc., Toronto, Canada), against a series of matrix matched calibration curve standards, using multiple reaction monitoring (MRM) at the specific transitions for each compound. Non‐compartmental analysis was performed using WinNonlin, version 4.1 (Pharsight, Mountain View, CA), and the main pharmacokinetic parameters were estimated.

[5] = system: P. falciparum 3D7^0087/N9; test: P. falciparum murine model (humanized mice), 4-day test; type: in vivo, Plasmodium falciparum; details: for ED90: oral QD for 4 days, parasitaemia at day 7, humanized mice
Protocol: The in vivo efficacy evaluation of the compounds was performed using a P. falciparum murine model of malaria in non‐myelodepleted NOD. Cg‐Prkdc^ scid –β2m^ tm1Unc ‐scid IL2R_null (NODscidβ2m^−/−) mice engrafted with human erythrocytes as described previously (Angulo‐Barturen et al., [2008]; Jimenez‐Diaz et al., [2005]; Jimenez‐Diaz et al., [2009]; Jimenez‐Diaz et al., [2009]), as this model enables testing of P. falciparum strains with high infectious burden. Briefly, groups of three mice engrafted with human erythrocytes were infected with 20 × 10^6 of P. falciparum 3D7^0087/N9‐infected erythrocytes/mouse by intravenous route. The mice were randomly assigned to their corresponding experimental groups. The treatment of oral doses QD for 4 days started at day 3 after infection. Parasitaemia was measured at days 3, 5, and 7 post‐infection. The therapeutic efficacy was expressed as the dose (mg·kg^−1) that reduced parasitaemia in peripheral blood of mice at day 7 after infection by 90% (ED90) with respect to vehicle‐treated mice. Chloroquine was included as quality control for each in vivo assay. Efficacy is expressed as the daily dose (ED90), or equivalent exposure (AUCED90), administered to mice necessary to reduce parasitaemia at day 7 by 90% with respect to vehicle‐treated mice. The ED90 is estimated by fitting a four‐decade logistic equation for the log10 [parasitaemia at day 7] versus the log10 [dose] using GraphPad Prism 5.01 (GraphPad Software Inc., San Diego, CA).

M. catarrhalis ATCC23246 = test: Antibacterial screen, broth microdilution; type: cell-based, Moraxella catarrhalis; details: Moraxella catarrhalis, ATCC23246; broth microdilution
Protocol: Antibacterial activity of compounds was determined by a standard broth microdilution method (Clinical Laboratory Standard Institute CLSI, [2009]), except that for Streptococcus strains lysed blood was substituted with 5% horse serum in the testing medium. […] The activities are expressed as minimum inhibitory concentrations (MICs) in units of μg·ml^−1. […] The organisms tested represented macrolide sensitive Gram‐positive pathogens that are mainly targeted by macrolide antibiotics. Tested streptococci were clinical isolates Streptococcus pneumoniae SP030 and Streptococcus pyogenes 3565 from internal strain collection, and other strains were obtained from ATCC bioresource centre, Staphylococcus aureus ATCC13709, Haemophilus influenzae ATCC49247, and Moraxella catarrhalis ATCC23246. Double dilutions of tested compounds were prepared using TECAN Genesis 150. Bacteria were grown on appropriate agar plates (Becton Dickinson, USA)—Columbia agar with 5% sheep blood for streptococci and M. catarrhalis, Mueller‐Hinton chocolate agar for H. influenzae , and Mueller‐Hinton agar for staphylococci.

[6] = whole blood, po, 12.5 mg/kg, F, CD‐1 mice, 12.5 mg·kg^−1 i.v. and p.o.
[7] = 7G8, 72 h, read-out: IC50 7G8 (CQ, PY)
[8] = whole blood, intravenous, 12.5 mg/kg
[9] = whole blood, po, 12.5 mg/kg, fasted CD-1 mice
[10] = whole blood, po, 12.5 mg/kg, fed CD-1 mice

Structure (SMILES)	IC50 [1] [nM]	IC50 [3] [nM]	B/P (ratio of AUC0−t in whole blood and plasma) ([4]; CD‐1 mice)	DNAUCPO (AUC0−t divided by the dose) ([4]; CD‐1 mice) [ng·kg·h/mL/mg]	Vd ([4]; whole blood, 12.5 mg/kg) [L/kg]	clearance ([4]; whole blood, 12.5 mg/kg) [mL/min/kg]	bioavailability [4, 6] [%]	ED90 [5] [mg/kg]	MIC (M. catarrhalis ATCC23246) [µg/mL]	IC50 [2, 7] [nM]	half-life [4, 8] [h]	further results
CC[C@H]1OC(=O)[C@H](C)[C@@H](O[C@H]2C[C@@](C)(OC)[C@@H](O)[C@H](C)O2)[C@H](C)[C@@H](O[C@@H]2O[C@H](C)C[C@H](N(C)C)[C@H]2O)[C@](C)(O)C[C@@H](C)CN(C)[C@H](C)[C@@H](O)[C@]1(C)O [Azithromycin, reference compound]	15900	2720	2.4	267	29.2	40.2	61	> 200	≤ 0.125	–	–	IC50 ([2]; 7G8, 72 h of incubation, N = 3, read-out: IC50 7G8 (CQ, PY)): 4590 nM; Tox50 HepG2 (HepG2 cells): 203 ^b μM; half-life ([4]; in vivo, 12.5 mg/kg): 10.1 h
CC[C@H]1OC(=O)[C@H](C)[C@@H](O[C@H]2C[C@@](C)(OC)[C@@H](O)[C@H](C)O2)[C@H](C)[C@@H](O[C@@H]2O[C@H](C)C[C@H](N(C)C)[C@H]2O)[C@](C)(O)C[C@@H](C)CN(CCCNc2ccnc3cc(Cl)ccc23)[C@H](C)[C@@H](O)[C@]1(C)O [Compound 1]	28	13	14.0	253	4.42	1.95	4	–	2 (≈ 2.1 µM)	37	28.2	Tox50 HepG2 (HepG2 cells; ref Peric et al. ([2012])): 30 ^c μM; bioavailability ([4]; whole blood, oral, 12.5 mg·kg^−1, F, fasted CD-1 mice, ratio of AUC0-t after PO and IV): 11.3%; bioavailability ([4]; whole blood, oral, 12.5 mg·kg^−1, F, fed CD-1 mice, ratio of AUC0-t after PO and IV): 3.75%; AUC(0-t) [4, 9]: 9510 ng·h/mL; AUC(0-t) [4, 10]: 3160 ng·h/mL; Cmax [4, 9]: 582 ng/mL; Cmax [4, 10]: 162 ng/mL; increase in oral F in fasted versus fed mice ([4]; fed versus fasted mice): threefold increase; day of follow‐up up to which parasitaemia remained undetectable / parasite growth suppressed ([5]; humanized mice, oral 4‐day treatment): ≥ 24 days
CC[C@H]1OC(=O)[C@H](C)[C@@H](O)[C@H](C)[C@@H](O[C@@H]2O[C@H](C)C[C@H](N(C)C)[C@H]2OCCCNc2ccnc3ccccc23)[C@](C)(O)C[C@@H](C)CN[C@H](C)[C@@H](O)[C@]1(C)O [Compound 3]	30	21	3.7	362	13.4	10.1	26	23.9	> 64	17	15.6	Tox50 HepG2 (HepG2 cells; ref Pesic et al. ([2012])): 83 ^b μM
